From patent publication US10227323B2, “Glucosylceramide synthase inhibitors for the treatment of diseases” (BIOMARIN PHARMACEUTICAL INC., priority 2013, dated 2019)

Molecular target: T1, GCS (Canis lupus familiaris, UniProt A0A8I3MXG6)
T1 sequence (A0A8I3MXG6 1-394): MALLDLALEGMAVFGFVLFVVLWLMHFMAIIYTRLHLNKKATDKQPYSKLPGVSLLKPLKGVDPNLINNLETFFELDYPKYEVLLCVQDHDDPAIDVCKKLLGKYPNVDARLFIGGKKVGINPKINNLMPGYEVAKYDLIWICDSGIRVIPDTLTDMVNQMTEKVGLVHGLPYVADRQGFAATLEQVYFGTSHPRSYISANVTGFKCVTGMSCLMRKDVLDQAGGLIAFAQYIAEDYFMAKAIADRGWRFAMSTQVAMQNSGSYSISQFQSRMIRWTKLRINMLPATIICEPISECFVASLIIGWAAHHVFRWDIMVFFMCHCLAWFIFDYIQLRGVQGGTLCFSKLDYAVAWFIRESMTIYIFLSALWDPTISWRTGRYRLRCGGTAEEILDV
Test: Assay 1: GCS Enzymatic Assay (MDCK cell lysate, C6-NBD-Ceramide, LC/MS)
Assay type: biochemical, canine
Details: Table 2; for IC50: data without asterisk, read-out: IC50 (nM) generated from Assay 1; for % inhibition generated from Assay 1: data marked by *
How it was run: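 LC/MS/MS measurement of glucosylceramide and NBD-ceramide after a 1 h, 37 °C reaction with 100 μM UDP-glucose and 10 μM C6-NBD-ceramide gave IC50s or percent inhibition.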

SMILES	IC50	% inhibition generated from Assay 1
O=C(N[C@H](CN1CCCC1)[C@H](O)c1ccc(OC2CC2)c(Cl)c1)C(=O)c1cc2ccccc2s1 [Compound 377, 2-(benzo[b]thiophen-2-yl)-N-((1R,2R)-1-(3-chloro-4-cyclopropoxyphenyl)-1-hydroxy-3-(pyrrolidin-1-yl)propan-2-yl)-2-oxoacetamide]	< 50 nM	–
C#Cc1ccc(C(=O)C(=O)N[C@H](CN2CCCC2)[C@H](O)c2ccc(OC3CC3)c(F)c2)cc1 [Compound 378, N-((1R,2R)-1-(4-cyclopropoxy-3-fluorophenyl)-1-hydroxy-3-(pyrrolidin-1-yl)propan-2-yl)-2-(4-ethynylphenyl)-2-oxoacetamide]	< 50 nM	–
O=C(N[C@H](CN1CCCC1)[C@H](O)c1cc(F)c2c(c1)OCCO2)C(=O)c1ccc(F)cc1 [Compound 379, N-((1R,2R)-1-(8-fluoro-2,3-dihydrobenzo[b][1,4]dioxin-6-yl)-1-hydroxy-3-(pyrrolidin-1-yl)propan-2-yl)-2-(4-fluorophenyl)-2-oxoacetamide]	< 50 nM	–
O=C(N[C@H](CN1CCCC1)[C@H](O)c1ccc(OC2CC2)c(Cl)c1)C(=O)C1CCN(c2ccc(F)cc2)CC1 [Compound 380, N-((1R,2R)-1-(3-chloro-4-cyclopropoxyphenyl)-1-hydroxy-3-(pyrrolidin-1-yl)propan-2-yl)-2-(1-(4-fluorophenyl)piperidin-4-yl)-2-oxoacetamide]	50 to 5000 nM	–
O=C(N[C@H](CN1CCC1)[C@H](O)c1ccc(OC2CC2)c(F)c1)C(=O)c1cc2ccc(Cl)cc2s1 [Compound 381, N-((1R,2R)-3-(azetidin-1-yl)-1-(4-cyclopropoxy-3-fluorophenyl)-1-hydroxypropan-2-yl)-2-(6-chlorobenzo[b]thiophen-2-yl)-2-oxoacetamide]	< 50 nM	–
CN(C(=O)C(=O)c1ccc(-c2ccc(F)cc2)cc1)[C@H](CN1CCCC1)[C@H](O)c1ccc(OC2CC2)c(F)c1 [Compound 382, N-((1R,2R)-1-(4-cyclopropoxy-3-fluorophenyl)-1-hydroxy-3-(pyrrolidin-1-yl)propan-2-yl)-2-(4′-fluoro-[1,1′-biphenyl]-4-yl)-N-methyl-2-oxoacetamide]	< 50 nM	–
CN(C(=O)C(=O)c1cc2ccc(Cl)cc2s1)[C@H](CN1CCCC1)[C@H](O)c1ccc(OC2CC2)c(F)c1 [Compound 383, 2-(6-chlorobenzo[b]thiophen-2-yl)-N-((1R,2R)-1-(4-cyclopropoxy-3-fluorophenyl)-1-hydroxy-3-(pyrrolidin-1-yl)propan-2-yl)-N-methyl-2-oxoacetamide]	< 50 nM	–
CC(C)n1ncc2cc(-c3ccc(C(=O)C(=O)N[C@H](CN4CCCC4)[C@H](O)c4ccc(OC5CC5)c(Cl)c4)cc3)ccc21 [Example 258, N-((1R,2R)-1-(3-chloro-4-cyclopropoxyphenyl)-1-hydroxy-3-(pyrrolidin-1-yl)propan-2-yl)-2-(4-(1-isopropyl-1H-indazol-5-yl)phenyl)-2-oxoacetamide]	< 50 nM	–
CC(C)n1cc2cc(-c3ccc(C(=O)C(=O)N[C@H](CN4CCCC4)[C@H](O)c4ccc(OC5CC5)c(Cl)c4)cc3)ccc2n1 [Example 259, N-((1R,2R)-1-(3-chloro-4-cyclopropoxyphenyl)-1-hydroxy-3-(pyrrolidin-1-yl)propan-2-yl)-2-(4-(2-isopropyl-2H-indazol-5-yl)phenyl)-2-oxoacetamide]	< 50 nM	–
Cn1ncc2ccc(-c3cccc(C(=O)C(=O)N[C@H](CN4CCCC4)[C@H](O)c4ccc(OC5CC5)c(Cl)c4)c3)cc21 [Example 261, N-((1R,2R)-1-(3-chloro-4-cyclopropoxyphenyl)-1-hydroxy-3-(pyrrolidin-1-yl)propan-2-yl)-2-(3-(1-methyl-1H-indazol-6-yl)phenyl)-2-oxoacetamide]	–	A* (the compound had a % inhibition of a percent inhibition of greater than or equal to about 50%)
O=C(N[C@H](CN1CCCC1)[C@H](O)c1ccc(OC2CC2)c(Cl)c1)C(=O)N1CCN(c2ccc(F)cc2)CC1 [Example 262, N-((1R,2R)-1-(3-chloro-4-cyclopropoxyphenyl)-1-hydroxy-3-(pyrrolidin-1-yl)propan-2-yl)-2-(4-(4-fluorophenyl)piperazin-1-yl)-2-oxoacetamide]	–	B* (the compound had a % inhibition of greater than or equal to about 3% but less than about 50%)
O=C(N[C@H](CN1CCCC1)[C@H](O)c1ccc(OC2CC2)c(C(F)(F)F)c1)C(=O)c1ccc(-c2ccc(F)cc2)cc1 [Example 265, N-((1R,2R)-1-(4-cyclopropoxy-3-(trifluoromethyl)phenyl)-1-hydroxy-3-(pyrrolidin-1-yl)propan-2-yl)-2-(4′-fluoro-[1,1′-biphenyl]-4-yl)-2-oxoacetamide]	–	B* (the compound had a % inhibition of greater than or equal to about 3% but less than about 50%)

Now from value to compound, other results behind:

IC50	SMILES	% inhibition generated from Assay 1
< 50 nM	O=C(N[C@H](CN1CCCC1)[C@H](O)c1ccc(OC2CC2)c(Cl)c1)C(=O)c1ccc(-c2ccc3sc(Cl)cc3c2)cc1 [Example 263, N-((1R,2R)-1-(3-chloro-4-cyclopropoxyphenyl)-1-hydroxy-3-(pyrrolidin-1-yl)propan-2-yl)-2-(4-(2-chlorobenzo[b]thiophen-5-yl)phenyl)-2-oxoacetamide]	–
< 50 nM	O=C(N[C@H](CN1CCCC1)[C@H](O)c1ccc(OC2CC2)c(Cl)c1)C(=O)c1ccc(-c2ccc(F)cc2)cn1 [Example 264, N-((1R,2R)-1-(3-chloro-4-cyclopropoxyphenyl)-1-hydroxy-3-(pyrrolidin-1-yl)propan-2-yl)-2-(5-(4-fluorophenyl)pyridin-2-yl)-2-oxoacetamide]	–
< 50 nM	CC(C)n1ccc2cc(-c3ccc(C(=O)C(=O)N[C@H](CN4CCCC4)[C@H](O)c4ccc(OC5CC5)c(Cl)c4)cc3)ccc21 [Example 266, N-((1R,2R)-1-(3-chloro-4-cyclopropoxyphenyl)-1-hydroxy-3-(pyrrolidin-1-yl)propan-2-yl)-2-(4-(1-isopropyl-1H-indo1-5-yl)phenyl)-2-oxoacetamide]	–
< 50 nM	O=C(N[C@H](CN1CCCC1)[C@H](O)c1ccc2c(c1)OCCO2)C(=O)c1ccc(-c2ccc(Cl)cc2)cc1 [Example 267, 2-(4′-chloro-[1,1′-biphenyl]-4-yl)-N-((1R,2R)-1-(2,3-dihydrobenzo[b][1,4]dioxin-6-yl)-1-hydroxy-3-(pyrrolidin-1-yl)propan-2-yl)-2-oxoacetamide]	–
< 50 nM	O=C(N[C@H](CN1CCCC1)[C@H](O)c1ccc2c(c1F)OCCO2)C(=O)c1ccc(-c2ccc(F)cc2)cc1 [Example 268, N-((1R,2R)-1-(5-fluoro-2,3-dihydrobenzo[b][1,4]dioxin-6-yl)-1-hydroxy-3-(pyrrolidin-1-yl)propan-2-yl)-2-(4′-fluoro-[1,1′-biphenyl]-4-yl)-2-oxoacetamide]	–
< 50 nM	CC(C)n1ccc2cc(-c3ccc(C(=O)C(=O)N[C@H](CN4CCCC4)[C@H](O)c4cc(F)c5c(c4)OCCO5)cc3)ccc21 [Example 269, N-((1R,2R)-1-(8-fluoro-2,3-dihydrobenzo[b][1,4]dioxin-6-yl)-1-hydroxy-3-(pyrrolidin-1-yl)propan-2-yl)-2-(4-(1-isopropyl-1H-indol-5-yl)phenyl)-2-oxoacetamide]	–
< 50 nM	O=C(N[C@H](CN1CCCC1)[C@H](O)c1ccc(OC2CC2)c(Cl)c1)C(=O)c1ccc(-c2ccc(Cl)cc2)cc1 [Example 270, N-((1R,2R)-1-(3-chloro-4-cyclopropoxyphenyl)-1-hydroxy-3-(pyrrolidin-1-yl)propan-2-yl)-2-(4′-chloro-[1,1′-biphenyl]-4-yl)-2-oxoacetamide]	–
< 50 nM	CC(C)n1cnc2cc(-c3ccc(C(=O)C(=O)N[C@H](CN4CCCC4)[C@H](O)c4ccc(OC5CC5)c(Cl)c4)cc3)ccc21 [Example 271, N-((1R,2R)-1-(3-chloro-4-cyclopropoxyphenyl)-1-hydroxy-3-(pyrrolidin-1-yl)propan-2-yl)-2-(4-(1-isopropyl-1H-benzo[d]imidazol-5-yl)phenyl)-2-oxoacetamide]	–
< 50 nM	O=C(N[C@H](CN1CCCC1)[C@H](O)c1cc(F)c2c(c1)OCCO2)C(=O)c1ccc(-c2ccc(Cl)cc2)cc1 [Example 272, 2-(4′-chloro-[1,1′-biphenyl]-4-yl)-N-((1R,2R)-1-(8-fluoro-2,3-dihydrobenzo[b][1,4]dioxin-6-yl)-1-hydroxy-3-(pyrrolidin-1-yl)propan-2-yl)-2-oxoacetamide]	–
< 50 nM	O=C(N[C@H](CN1CCCC1)[C@H](O)c1cc(F)c2c(c1)OCCO2)C(=O)c1ccc(N2CCCC2)cc1 [Example 273, N-((1R,2R)-1-(8-fluoro-2,3-dihydrobenzo[b][1,4]dioxin-6-yl)-1-hydroxy-3-(pyrrolidin-1-yl)propan-2-yl)-2-oxo-2-(4-(pyrrolidin-1-yl)phenyl)acetamide]	–
< 50 nM	O=C(N[C@H](CN1CCCC1)[C@H](O)c1ccc(OC2CC2)c(Cl)c1)C(=O)c1ccc(-c2ccc(C(F)(F)F)cc2)cc1 [Example 274, N-((1R,2R)-1-(3-chloro-4-cyclopropoxyphenyl)-1-hydroxy-3-(pyrrolidin-1-yl)propan-2-yl)-2-oxo-2-(4′-(trifluoromethyl)-[1,1′-biphenyl]-4-yl)acetamide]	–
< 50 nM	O=C(N[C@H](CN1CCCC1)[C@H](O)c1cc(F)c2c(c1)OCCO2)C(=O)c1ccc(-c2ccc3c(cnn3C3CC3)c2)cc1 [Example 275, 2-(4-(1-cyclopropyl-1H-indazol-5-yl)phenyl)-N-((1R,2R)-1-(8-fluoro-2,3-dihydrobenzo[b][1,4]dioxin-6-yl)-1-hydroxy-3-(pyrrolidin-1-yl)propan-2-yl)-2-oxoacetamide]	–
